Data taken from patent US9040663B2, “Melanocortin receptor-specific peptides” (AstraZeneca AB, priority 2009, dated 2015).
Several values for one entry are separate records, joined by “and”; a condition that tells them apart may be missing. Equal values may be shown once. Read-outs that look alike come from different tables or passages of the source.

Experiments:
hMC4-R [1] = biological target: T1, hMC4-R (Homo sapiens (Human), UniProt P32245); experiment: Competitive inhibition binding assay using [I125]-NDP-α-MSH, hMC4-R; conditions: membranes of HEK-293 cells expressing recombinant hMC4-R, read-out: MC4-R Ki
T1 sequence (P32245 whole entry): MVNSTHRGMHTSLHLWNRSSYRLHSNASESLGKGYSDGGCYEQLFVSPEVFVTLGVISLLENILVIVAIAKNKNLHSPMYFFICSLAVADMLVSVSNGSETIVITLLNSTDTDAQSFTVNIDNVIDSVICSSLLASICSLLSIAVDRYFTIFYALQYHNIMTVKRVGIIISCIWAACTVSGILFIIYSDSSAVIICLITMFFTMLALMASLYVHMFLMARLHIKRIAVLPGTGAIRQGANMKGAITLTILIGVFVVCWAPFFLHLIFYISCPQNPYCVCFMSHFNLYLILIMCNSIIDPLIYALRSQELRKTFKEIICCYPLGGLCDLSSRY

MC1-R = experiment: Competitive inhibition binding assay using [I125]-NDP-α-MSH, MC1-R; conditions: membranes of B-16 mouse melanoma cells (endogenous MC1-R), in some instances HEK-293 hMC1-R
How it was run: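 Radioligand displacement on membranes from B-16 mouse melanoma cells (endogenous MC1-R) or HEK-293 expressing recombinant hMC1-R, with 0.1 nM [I125]-NDP-α-MSH and increasing peptide concentrations in HEPES pH 7.5 buffer, 60 min at 37° C.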

hMC4-R [2] = biological target: T1, hMC4-R; experiment: High and low density hMC4-R functional assay (cAMP, HEK293-T-REx-MC4-R cells); format: cell-based; conditions: for Emax: NDP-α-MSH = 100%
[3] = Food intake and body weight change; format: in vivo, Sprague-Dawley rats; conditions: male rats, 1.0 mg/kg s.c., mean ± SEM; for BW change 0-24 h: body weight; for FI 0-4 h / FI 0-24 h: food intake
Method: 7.4 Food Intake and Body Weight Change.
Change in food intake and body weight was evaluated for selected peptides administered by subcutaneous injection route. Male Sprague-Dawley rats were obtained from Hilltop Lab Animals, Inc. (Scottdale, Pa.). Animals were individually housed in conventional polystyrene hanging cages and maintained on a controlled 12 hour on/off light cycle. Water and pelleted food (ProLab RMH 2500, W.F. Fisher & Son Inc.) was provided ad libitum. The rats were dosed subcutaneously with vehicle (3.2% mannitol/50 mM Tris buffer) or selected peptides (1.0 mg/kg). The changes in food intake for the 4 and 24 hour periods after dosing and the changes in body weight for the 24 hour period after dosing were determined. The changes in body weight and food intake for the 48 hour and 72 hour periods after dosing was also measured to determine reversal of changes in body weight and food intake effects back to baseline levels (not shown).

[4] = Induction of penile erection; conditions: male rats; for Total number of PE/rat 0-1 h: mean ± SEM; for % Responders: rats showing at least one erection
Method: 7.5 Induction of Penile Erection.
The ability of peptides of the present invention to induce penile erection (PE) in male rats was evaluated with selected peptides. Male Sprague-Dawley rats weighing 250-300 g were kept on a 12 hour on/off light cycle with food and water ad libitum. All behavioral studies were performed between 9 a.m. and 4 p.m.
Corresponding vehicle controls (3.2% mannitol/50 mM Tris buffer) were run in parallel.

[5] = 0.1 ng/mL Doxycycline (low density hMC4-R system)
[6] = 0.1 ng/mL Doxycycline (low density hMC4-R system), read-out: Intrinsic Activity (%)
[7] = 10 ng/mL Doxycycline (high density hMC4-R system), read-out: Intrinsic Activity (%)
[8] = 10 ng/mL Doxycycline (high density hMC4-R system)

SMILES | Ki (hMC4-R [1]) | Ki (MC1-R) | EC50 (hMC4-R [2]; [5]) | Emax (hMC4-R [2]; [6]) | Emax (hMC4-R [2]; [7]) | Total number of PE/rat 0-1 h ([4]; 1.0 mg/kg s.c.) | % Responders ([4]; 1.0 mg/kg s.c.) | Total number of PE/rat 0-1 h ([4]; 3.0 mg/kg s.c.) | % Responders ([4]; 3.0 mg/kg s.c.) | EC50 (hMC4-R [2]; [8]) | Emax (hMC4-R [2]; Table 1, mean values, 0.1 ng/mL Doxycycline (low density hMC4-R system), read-out: Intrinsic activity (%)) | BW change 0-24 h [3] | FI 0-4 h [3] | FI 0-24 h [3]
CC(=O)N[C@@H](CCCNC(=N)N)C(=O)N[C@H]1CCC(=O)NCCC[C@@H](C(N)=O)NC(=O)[C@H](Cc2c[nH]c3ccccc23)NC(=O)[C@H](CCCNC(=N)N)NC(=O)[C@@H](Cc2ccc(C#N)cc2)NC(=O)[C@H](CC(N)=O)NC1=O [Example 43, Ac-Arg-cyclo(Glu-Asn-D-Phe(4-CN)-Arg-Trp-Orn)-NH2] | 5 nM | 870 nM | 1 nM | 43% | 100% | 1.7 ± 0.36 | 29% | 6.0 ± 0.76 | 100% |  |  | 0.45 ± 0.35 g | 6.85 ± 0.55 g | 24.44 ± 0.85 g
CC(=O)N[C@@H](CCCNC(=N)N)C(=O)N[C@H]1CCC(=O)NCCC[C@@H](C(N)=O)NC(=O)[C@H](Cc2c[nH]c3ccccc23)NC(=O)[C@H](CCCNC(=N)N)NC(=O)[C@@H](Cc2ccccc2Cl)NC(=O)[C@H](CCN)NC1=O [Example 1, Ac-Arg-cyclo(Glu-Dab-D-Phe(2-Cl)-Arg-Trp-Orn)-NH2] | 3 nM | 1 nM | 0.34 nM | 91% | 96% |  |  |  |  | 0.045 nM |  |  |  | 
CC(=O)N[C@@H](CCCNC(=N)N)C(=O)N[C@H]1CCC(=O)NCCC[C@@H](C(N)=O)NC(=O)[C@H](Cc2c[nH]c3ccccc23)NC(=O)[C@H](CCCNC(=N)N)NC(=O)[C@@H](Cc2ccccc2Cl)NC(=O)[C@H](CO)NC1=O [Example 31, Ac-Arg-cyclo(Glu-Ser-D-Phe(2-Cl)-Arg-Trp-Orn)-NH2] | 8 nM | 300 nM | 7 nM | 33% | 98% |  |  |  |  |  |  |  |  | 
CC(=O)N[C@@H](CCCNC(=N)N)C(=O)N[C@H]1CCC(=O)NCCC[C@@H](C(N)=O)NC(=O)[C@H](Cc2c[nH]c3ccccc23)NC(=O)[C@H](CCCNC(=N)N)NC(=O)[C@@H](Cc2cccc(Cl)c2)NC(=O)[C@H]([C@@H](C)O)NC1=O [Example 36, Ac-Arg-cyclo(Glu-Thr-D-Phe(3-Cl)-Arg-Trp-Orn)-NH2] | 6 nM | 380 nM |  | 8% | 89% |  |  |  |  | 1 nM |  |  |  | 
CC(=O)N[C@@H](CCCNC(=N)N)C(=O)N[C@H]1CCC(=O)NCCC[C@@H](C(N)=O)NC(=O)[C@H](Cc2c[nH]c3ccccc23)NC(=O)[C@H](CCCNC(=N)N)NC(=O)[C@@H](Cc2ccccc2Cl)NC(=O)[C@H](COCc2ccccc2)NC1=O [Example 47, Ac-Arg-cyclo(Glu-Ser(Bzl)-D-Phe(2-Cl)-Arg-Trp-Orn)-NH2] | 0.3 nM | 25 nM | 0.31 nM | 36% | 100% |  |  |  |  | 0.373 nM |  |  |  | 
CC(=O)N[C@@H](CCCNC(=N)N)C(=O)N[C@H]1CCCNC(=O)CC[C@@H](C(N)=O)NC(=O)[C@H](Cc2c[nH]c3ccccc23)NC(=O)[C@H](CCCNC(=N)N)NC(=O)[C@@H](Cc2ccc(F)c(F)c2)NC(=O)[C@H](CC(N)=O)NC1=O [Example 75, Ac-Arg-cyclo(Orn-Asn-D-Phe(3,4-diF)-Arg-Trp-Glu)-NH2] | 3 nM | 190 nM | 0.65 nM | 43% | 87% |  |  |  |  | 0.125 nM |  |  |  | 
CC(=O)N[C@@H](CCCNC(=N)N)C(=O)N[C@H]1CCC(=O)NCCC[C@@H](C(N)=O)NC(=O)[C@H](Cc2c[nH]c3ccccc23)NC(=O)[C@H](CCCNC(=N)N)NC(=O)[C@@H](Cc2ccccc2F)NC(=O)[C@H](CC(N)=O)NC1=O [Example 84, Ac-Arg-cyclo(Glu-Asn-D-Phe(2-Cl)-Arg-Trp-Orn)-NH2] | 7 nM | 245 nM |  | 78% | 97% |  |  |  |  | 0.09 nM |  |  |  | 
CC(=O)N[C@@H](CCCNC(=N)N)C(=O)N[C@H]1CCC(=O)NCCC[C@@H](C(=O)O)NC(=O)[C@H](Cc2c[nH]c3ccccc23)NC(=O)[C@H](CCCNC(=N)N)NC(=O)[C@@H](Cc2ccccc2)NC(=O)[C@H](CCN)NC1=O [Ref Ex 2, Ac-Arg-cyclo(Glu-Dab-D-Phe-Arg-Trp-Orn)-OH, reference compound] |  |  |  |  |  |  |  | 6.0 ± 0.44 | 100% |  | 92% |  | 3.17 ± 0.42 g and 4.41 ± 0.48 g and 2.80 ± 0.27 g | 19.98 ± 0.60 g and 20.84 ± 1.01 g and 21.81 ± 1.04 g
CC(=O)N[C@H](CCCNC(=N)N)C(=O)N[C@H]1CCCNC(=O)CC[C@@H](C(N)=O)NC(=O)[C@H](Cc2c[nH]c3ccccc23)NC(=O)[C@H](CCCNC(=N)N)NC(=O)[C@@H](Cc2ccccc2F)NC(=O)[C@H](Cc2c[nH]cn2)NC1=O [Example 53, Ac-D-Arg-cyclo(Orn-His-D-Phe(2-F)-Arg-Trp-Glu)-NH2] | 0.95 nM | 0.75 nM | 0.13 nM | 86% | 90% |  |  |  |  | 0.13 nM |  |  |  | 
CC(=O)N[C@@H](CCCNC(=N)N)C(=O)N[C@H]1CCC(=O)NCCC[C@@H](C(N)=O)NC(=O)[C@H](Cc2c[nH]c3ccccc23)NC(=O)[C@H](CCCNC(=N)N)NC(=O)[C@@H](Cc2cccc(Cl)c2)NC(=O)[C@H](CCC(N)=O)NC1=O [Example 38, Ac-Arg-cyclo(Glu-Gln-D-Phe(3-Cl)-Arg-Trp-Orn)-NH2] | 3 nM | 290 nM | 2 nM | 31% | 97% |  |  |  |  |  |  |  |  | 

More lines, main results first:

Ki (hMC4-R [1]) | Ki (MC1-R) | EC50 (hMC4-R [2]; [5]) | Emax (hMC4-R [2]; [6]) | Emax (hMC4-R [2]; [7]) | Total number of PE/rat 0-1 h ([4]; 1.0 mg/kg s.c.) | % Responders ([4]; 1.0 mg/kg s.c.) | Total number of PE/rat 0-1 h ([4]; 3.0 mg/kg s.c.) | % Responders ([4]; 3.0 mg/kg s.c.) | EC50 (hMC4-R [2]; [8]) | Emax (hMC4-R [2]; Table 1, mean values, 0.1 ng/mL Doxycycline (low density hMC4-R system), read-out: Intrinsic activity (%)) | SMILES | BW change 0-24 h [3] | FI 0-4 h [3] | FI 0-24 h [3]
5 nM | 130 nM | 1 nM | 38% | 99% | 2.3 ± 0.42 | 86% | 3.3 ± 1.0 | 100% | 0.14 nM |  | CC(=O)N[C@@H](CCCNC(=N)N)C(=O)N[C@H]1CCC(=O)NCCC[C@@H](C(N)=O)NC(=O)[C@H](Cc2c[nH]c3ccccc23)NC(=O)[C@H](CCCNC(=N)N)NC(=O)[C@@H](Cc2ccc(F)cc2)NC(=O)[C@@H]2CCCN2C1=O [Example 67, Ac-Arg-cyclo(Glu-Pro-D-Phe(4-F)-Arg-Trp-Orn)-NH2] | -0.05 ± 0.39 g | 4.20 ± 0.66 g | 21.51 ± 1.27 g
2 nM | 880 nM |  | 8% | 93% |  |  |  |  | 0.5 nM |  | CC(=O)N[C@@H](CCCNC(=N)N)C(=O)N[C@H]1CCC(=O)NCCC[C@@H](C(N)=O)NC(=O)[C@H](Cc2c[nH]c3ccccc23)NC(=O)[C@H](CCCNC(=N)N)NC(=O)[C@@H](Cc2ccc(C#N)cc2)NC(=O)[C@@H]2C[C@@H](O)CN2C1=O [Example 40, Ac-Arg-cyclo(Glu-Hyp-D-Phe(4-CN)-Arg-Trp-Orn)-NH2] |  |  | 
0.25 nM | 0.15 nM | 0.15 nM | 28% | 97% |  |  |  |  | 0.16 nM |  | COc1ccc(C[C@H]2NC(=O)[C@H](CCN)NC(=O)[C@@H](NC(=O)[C@H](CCCNC(=N)N)NC(C)=O)CCC(=O)NCCC[C@@H](C(N)=O)NC(=O)[C@H](Cc3c[nH]c4ccccc34)NC(=O)[C@H](CCCNC(=N)N)NC2=O)cc1 [Example 16, Ac-Arg-cyclo(Glu-Dab-D-Phe(4-OMe)-Arg-Trp-Orn)-NH2] |  |  | 
6 nM | 95 nM | 5 nM | 32% | 88% |  |  |  |  | 0.265 nM |  | CC(=O)N[C@@H](CCCNC(=N)N)C(=O)N[C@H]1CCC(=O)NCCC[C@@H](C(N)=O)NC(=O)[C@H](Cc2c[nH]c3ccccc23)NC(=O)[C@H](CCCNC(=N)N)NC(=O)[C@@H](Cc2ccccc2F)NC(=O)[C@@H]2CCCN2C1=O [Example 66, Ac-Arg-cyclo(Glu-Pro-D-Phe(2-F)-Arg-Trp-Orn)-NH2] |  |  | 
2 nM | 33 nM | 0.85 nM | 55% | 91% |  |  |  |  | 0.075 nM |  | CC(=O)N[C@@H](CCCNC(=N)N)C(=O)N[C@H]1CCC(=O)NCCC[C@@H](C(N)=O)NC(=O)[C@H](Cc2c[nH]c3ccccc23)NC(=O)[C@H](CCCNC(=N)N)NC(=O)[C@@H](Cc2ccc(F)cc2)NC(=O)[C@H](CCS(C)(=O)=O)NC1=O [Example 68, Ac-Arg-cyclo(Glu-Met(O2)-D-Phe(4-F)-Arg-Trp-Orn)-NH2] |  |  | 
4 nM | 1550 nM |  | 4% | 79% |  |  |  |  | 1 nM |  | CC(=O)N[C@@H](CCCNC(=N)N)C(=O)N[C@H]1CCC(=O)NCCC[C@@H](C(N)=O)NC(=O)[C@H](Cc2c[nH]c3ccccc23)NC(=O)[C@H](CCCNC(=N)N)NC(=O)[C@@H](Cc2ccc(C#N)cc2)NC(=O)[C@@H]2CCCN2C1=O [Example 39, Ac-Arg-cyclo(Glu-Pro-D-Phe(4-CN)-Arg-Trp-Orn)-NH2] |  |  | 
